Where two headings read alike, the source gives them in different places.
Assays:
rats [1] = settings: cited from earlier work
mice = settings: dietary, cited from earlier work
[2] = cited from earlier work
[3] = cited from earlier work; for Duration plasma concentrations above 20 ng/ml: immediate release
[4] = tested on: person with androgenetic alopecia; test: Case studies: oral minoxidil in males with androgenetic alopecia (blood pressure, heart rate, hair growth)
subjects with hair loss = settings: cited from earlier work
patients = settings: cited from earlier work
hypertensive patients = settings: intravenous infusion; cited from earlier work
rabbits = settings: cited from earlier work
mouse bone marrow = mouse bone marrow micronucleus assay; cited from earlier work
rat hepatocyte = settings: in vitro rat hepatocyte unscheduled DNA synthesis assay; cited from earlier work
rats [5] = settings: cited from earlier work; remark: listed apart in the source
rat bone marrow = rat bone marrow micronucleus assay; cited from earlier work
Chinese hamster cells = Chinese hamster cells at long exposure times; cited from earlier work
male adults with AGA = settings: 5 mg oral at bedtime, cited from earlier work
Salmonella = Salmonella (Ames) test; cited from earlier work
dogs = settings: short-term administration 0.5 mg to 10 mg/kg/day; cited from earlier work
human lymphocytes = settings: cited from earlier work
[6] = oral, dose level 2.5 mg, healthy volunteers
[7] = oral, dose level 5 mg, healthy volunteers
[8] = oral, dose level 10 mg, healthy volunteers

Which Fetal resorption (rats [1]) does the source give for `Nc1cc(N2CCCCC2)nc(N)[n+]1[O-]` [Minoxidil] here?
The Fetal resorption was “not seen”.

What about the Teratogenic effects (rats [1]) of the same molecule?
The Teratogenic effects was “no evidence of teratogenic effects”.

And the “Incidence of hepatic nodules” value (mice; up to 2 years, 63 mg/kg/day)?
Its value is “increased incidence of hepatic nodules in males”.

What about the “Incidence of malignant lymphomas” value (mice; up to 2 years, 10, 25, and 63 mg/kg/day) of the same molecule?
Its value is “increased incidence of malignant lymphomas in females at all dose levels”.

And the “Predominant metabolite in urine” value ([2]; first 12 h, hypertensive patients)?
Its value is “A glucuronide conjugate”.

And the Renal clearance ([2]; human, in vivo)?
Its Renal clearance is 73.3 mL/min.

What about the “Radioactivity found in feces” value ([2]; hypertensive patients) of the same molecule?
The value was 3%.

And the “Total radioactivity recovered from urine” value ([2]; hypertensive patients)?
Its value is 97%.

And the “Time to peak plasma levels” value ([2]; oral)?
Its value is at most 1 h.

What about the “Fraction of oral minoxidil metabolized” value ([2]; primarily by conjugation with glucuronic acid) of the same molecule?
The value was “About 90%”.

What about the “Radiolabeled minoxidil and metabolites recovered from urine” value ([2]; within 24 h after oral administration, hypertensive patients) of the same molecule?
The value was “Over 80%”.

What about the “Dose dependence of PK and urinary excretion” value ([3]; 2.5 mg, 5 mg, or 10 mg oral, healthy volunteers) of the same molecule?
Its value is “dose-independent PK”.

And the “Effect on blood pressure” value ([3]; 2.5 mg, 5 mg, or 10 mg oral, normotensive subjects)?
The value was “little effect on blood pressure in normotensive subjects”.

And the “Duration plasma concentrations above 20 ng/ml” value ([3]; 5 mg dose level)?
Its value is “around 1 h”.

And the “Duration plasma concentrations above 20 ng/ml” value ([3]; 10 mg dose level)?
The value was “around 2 h”.

And the Observed half-life ([3]; immediate release formulation, oral)?
Its Observed half-life is “around 1 h”.

What about the “AUC(last)” value [3, 6] of the same molecule?
Its value is 25.3 ng·h/mL.

What about the Cmax [3, 6] of the same molecule?
Its Cmax is 16.8 ng/mL.

And the T1/2 [3, 6]?
The T1/2 was 64.2 min.

And the Tmax [3, 6]?
The Tmax was 34 min.

What about the “AUC(last)” value [3, 7] of the same molecule?
The value was 55.1 ng·h/mL.

What about the Cmax [3, 7] of the same molecule?
The Cmax was 37.2 ng/mL.

What about the T1/2 [3, 7] of the same molecule?
Its T1/2 is 76.2 min.

And the Tmax [3, 7]?
Its Tmax is 23.3 min.

And the “AUC(last)” value [3, 8]?
The value was 112 ng·h/mL.

And the Cmax [3, 8]?
The Cmax was 74.7 ng/mL.

And the T1/2 [3, 8]?
Its T1/2 is 80.4 min.

And the Tmax [3, 8]?
Its Tmax is 25.1 min.

And the Adverse events ([4]; 0.625 mg four times a day)?
The Adverse events was “No unwanted hair growth or other adverse events were noticed”.

What about the “Effect on blood pressure” value ([4]; 0.625 mg four times a day) of the same molecule?
The value was “did not experience significant reductions in blood pressure”.

What about the Adverse events ([4]; 1.25 mg QID) of the same molecule?
Its Adverse events is “No unwanted hair growth or other adverse events, including any cardiac effects, were noticed”.

And the “Serious adverse events (SAEs) reported” value (subjects with hair loss; topical foam 5% versus topical solution 2% in female pattern hair loss, 322 subjects, NCT01145625)?
Its value is “Ten serious adverse events (SAEs) were reported”.

And the “SAEs reported in subjects treated with minoxidil” value (subjects with hair loss; topical foam 5% versus vehicle topical foam, 404 subjects, NCT01226459)?
The value was “Six SAEs were reported”.

What about the “Temporary decrease in hematocrit, hemoglobin, and erythrocyte count (hemodilution)” value (patients; chronic therapy for severe hypertension, initially) of the same molecule?
Its value is “approximately 7%”.

And the “Patients in whom hypertrichosis was hardly or not at all tolerable” value (patients; human, in vivo)?
The value was “less than 10%”.

What about the “Plasma concentrations above which hemodynamic effects are typically seen” value (patients; human, in vivo) of the same molecule?
Its value is over 20 ng/mL.

And the “Patients exhibiting ECG alterations in direction and magnitude of T waves” value (patients; soon after starting therapy)?
The value was “approximately 60%”.

What about the “Steady state plasma concentrations associated with significant (>5 beats per minute) changes in heart rate” value (hypertensive patients) of the same molecule?
Its value is “above 20 ng/mL”.

What about the Fetal resorption (rabbits; 5 times the maximum recommended oral antihypertensive human dose) of the same molecule?
The Fetal resorption was “increased fetal resorption”.

And the Teratogenic effects (rabbits)?
The Teratogenic effects was “no evidence of teratogenic effects”.

What about the Mutagenicity (mouse bone marrow) of the same molecule?
Its Mutagenicity is “not mutagenic”.

What about the Mutagenicity (rat hepatocyte) of the same molecule?
Its Mutagenicity is “not mutagenic”.

And the Carcinogenicity (rats [5]; doses 15 times the usual human dosage for 22 months)?
The Carcinogenicity was “No evidence of carcinogenicity”.

And the Carcinogenicity findings (rats [5]; oral administration, two-year study)?
Its Carcinogenicity findings is “no positive findings”.

What about the Mutagenicity (rat bone marrow) of the same molecule?
The Mutagenicity was “not mutagenic”.

What about the Cytogenetic assay result (Chinese hamster cells) of the same molecule?
Its Cytogenetic assay result is “equivocal result”.

And the Subjects reporting edema (male adults with AGA; 24 week follow up, 34 subjects)?
The Subjects reporting edema was 2.9%.

And the Subjects reporting headache (male adults with AGA; 24 week follow up, 34 subjects)?
The Subjects reporting headache was 20.6%.

What about the Subjects reporting vertigo (male adults with AGA; 24 week follow up, 34 subjects) of the same molecule?
Its Subjects reporting vertigo is 2.9%.

And the Subjects reporting hypertrichosis (male adults with AGA; 24 weeks, 34 subjects)?
The Subjects reporting hypertrichosis was 55.9%.

And the Adverse cardiovascular outcomes (male adults with AGA; 24 weeks)?
The Adverse cardiovascular outcomes was “No adverse cardiovascular outcomes were observed”.

What about the Mutagenicity (Salmonella) of the same molecule?
The Mutagenicity was “not mutagenic”.

What about the Cardiac lesions (dogs) of the same molecule?
Its Cardiac lesions is “various cardiac lesions have been found”.

What about the Cytogenetic assay result (human lymphocytes) of the same molecule?
The Cytogenetic assay result was “negative”.
